Experimental data published in article PMC6449406, “Classification of the human phox homology (PX) domains based on their phosphoinositide binding specificities” (Nature Communications, 2019).

Key:
SNX25 PX domain = biological target: T1, SNX25 PX domain (Homo sapiens, UniProt Q9H3E2); test: 1H-15N HSQC NMR titration; type: binding; conditions: pH 7.0, 100 mM NaCl, 298 K; secondary site (Lys734)
T1 construct: PX domain only, 15N-labelled, from GST fusion in E. coli
T1 sequence (Q9H3E2 506-628): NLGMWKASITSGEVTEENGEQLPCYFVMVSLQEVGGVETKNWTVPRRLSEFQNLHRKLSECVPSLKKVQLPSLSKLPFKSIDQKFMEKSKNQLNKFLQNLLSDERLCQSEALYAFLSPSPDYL

[1] = biological target: the molecule itself; test: SEC; analytical gel filtration, Superdex 200 10/300, 50 mM Tris (pH 8.0), 100 mM NaCl, 2 mM DTT; 100 µl of SNX15 PX domain at 500 µM, 0.5 ml/min, 4 °C; mass from a calibration curve of standards

Molecule	1H-15N HSQC NMR titration (SNX25 PX domain)	stoichiometry N [1]
CCCCCCCC(=O)OC[C@H](COP(=O)(O)O[C@H]1[C@H](O)[C@@H](OP(=O)(O)O)[C@H](OP(=O)(O)O)[C@@H](OP(=O)(O)O)[C@H]1O)OC(=O)CCCCCCC [PtdIns(3,4,5)P3 headgroup analogue]	significant chemical shift perturbations were observed with di- and tri-phosphorylated phosphoinositides (PIP2 and PIP3)	
CCCCCCCC(=O)OC[C@H](COP(=O)(O)O[C@H]1[C@H](O)[C@@H](O)[C@H](OP(=O)(O)O)[C@@H](OP(=O)(O)O)[C@H]1O)OC(=O)CCCCCCC [PtdIns(3,4)P2 headgroup analogue]	significant chemical shift perturbations were observed with di- and tri-phosphorylated phosphoinositides (PIP2 and PIP3)	
CCCCCCCC(=O)OC[C@H](COP(=O)(O)O[C@@H]1[C@H](O)[C@H](O)[C@@H](OP(=O)(O)O)[C@H](OP(=O)(O)O)[C@H]1O)OC(=O)CCCCCCC [PtdIns(4,5)P2 headgroup analogue]	significant chemical shift perturbations were observed with di- and tri-phosphorylated phosphoinositides (PIP2 and PIP3)	
SNX15 PX domain (domain or fragment, human, source: E. coli BL21(DE3)/pLysS, purified (glutathione-Sepharose, thrombin cleavage, size exclusion chromatography); not shown: GST, N-terminal, cleaved) MSRQAKDDFLRHYTVSDPRTHPKGYTEYKVTAQFISKKDPEDVKEVVVWKRYSDFRKLHGDLAYTHRNLFRRLEEFPAFPRAQVFGRFEASVIEERRKGAEDLLRFTVHIPALNNSPQLKEFFRGG		2
